Assay results published in ChEMBL document CHEMBL4118198, “Synthesis and antiviral evaluation of novel peptidomimetics as norovirus protease inhibitors” (Bioorg Med Chem Lett, 2018).

Experiments:
[1] = molecular target: Nonstructural polyprotein (Norovirus Hu/GI/10360/2010/VNM, UniProt I1U3K2); experiment: (§1) Inhibition of Norovirus prototypic GI.1 3CL protease using HiLyte Fluor 488-labelled DFELQGPK as substrate incubated for 90 mins measured every mins for 20 mins by FRET assay; design: species or system Norovirus GI.1
Sequence of Nonstructural polyprotein (I1U3K2 whole entry): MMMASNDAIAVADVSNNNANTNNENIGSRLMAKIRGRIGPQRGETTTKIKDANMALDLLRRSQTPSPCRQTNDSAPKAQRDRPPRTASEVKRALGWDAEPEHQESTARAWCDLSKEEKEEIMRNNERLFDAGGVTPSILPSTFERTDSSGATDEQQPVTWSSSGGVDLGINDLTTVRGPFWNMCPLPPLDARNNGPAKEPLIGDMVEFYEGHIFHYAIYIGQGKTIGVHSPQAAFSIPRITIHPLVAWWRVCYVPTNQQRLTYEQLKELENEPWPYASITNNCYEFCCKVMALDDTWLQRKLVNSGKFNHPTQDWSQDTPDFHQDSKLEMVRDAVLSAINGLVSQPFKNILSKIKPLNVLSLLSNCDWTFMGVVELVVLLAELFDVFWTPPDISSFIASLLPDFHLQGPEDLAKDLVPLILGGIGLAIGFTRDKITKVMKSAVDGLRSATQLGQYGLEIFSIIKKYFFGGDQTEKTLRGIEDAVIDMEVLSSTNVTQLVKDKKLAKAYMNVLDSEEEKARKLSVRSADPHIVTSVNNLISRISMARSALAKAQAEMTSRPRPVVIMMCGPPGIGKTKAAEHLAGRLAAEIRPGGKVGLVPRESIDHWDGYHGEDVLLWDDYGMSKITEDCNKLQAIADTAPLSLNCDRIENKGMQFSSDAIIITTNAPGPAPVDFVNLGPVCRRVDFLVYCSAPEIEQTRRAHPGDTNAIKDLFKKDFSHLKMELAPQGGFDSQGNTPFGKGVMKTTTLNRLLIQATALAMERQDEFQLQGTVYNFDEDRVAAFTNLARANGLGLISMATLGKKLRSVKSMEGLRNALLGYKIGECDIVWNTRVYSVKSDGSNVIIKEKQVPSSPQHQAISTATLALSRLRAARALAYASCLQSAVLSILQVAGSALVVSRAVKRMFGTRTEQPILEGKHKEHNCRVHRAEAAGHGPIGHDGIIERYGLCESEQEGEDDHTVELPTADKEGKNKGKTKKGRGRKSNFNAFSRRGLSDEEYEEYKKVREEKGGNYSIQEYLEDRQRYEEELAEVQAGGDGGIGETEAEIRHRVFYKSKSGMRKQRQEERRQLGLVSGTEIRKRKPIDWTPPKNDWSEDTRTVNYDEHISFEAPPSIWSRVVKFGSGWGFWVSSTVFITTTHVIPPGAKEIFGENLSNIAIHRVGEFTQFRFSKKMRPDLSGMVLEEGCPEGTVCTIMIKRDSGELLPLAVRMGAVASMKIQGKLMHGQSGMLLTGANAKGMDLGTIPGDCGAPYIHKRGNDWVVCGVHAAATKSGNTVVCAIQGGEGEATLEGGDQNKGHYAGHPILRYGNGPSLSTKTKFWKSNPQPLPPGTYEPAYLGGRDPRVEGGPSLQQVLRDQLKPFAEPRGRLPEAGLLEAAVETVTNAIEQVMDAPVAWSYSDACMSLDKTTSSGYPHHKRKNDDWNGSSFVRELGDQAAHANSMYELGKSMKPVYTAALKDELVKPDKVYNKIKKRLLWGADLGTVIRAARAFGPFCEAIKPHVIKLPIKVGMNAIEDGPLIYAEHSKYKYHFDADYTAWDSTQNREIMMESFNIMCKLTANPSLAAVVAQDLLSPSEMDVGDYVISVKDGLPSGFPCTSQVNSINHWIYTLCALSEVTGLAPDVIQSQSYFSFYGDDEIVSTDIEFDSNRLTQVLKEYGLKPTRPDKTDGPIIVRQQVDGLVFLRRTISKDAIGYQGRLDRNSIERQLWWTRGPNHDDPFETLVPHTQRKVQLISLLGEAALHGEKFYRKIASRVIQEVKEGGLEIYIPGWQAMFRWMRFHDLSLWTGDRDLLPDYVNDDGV

Protease = molecular target: T1, Protease (Norovirus Hu/GII.4-2002/WeertE022/2002/NL, UniProt G1FEK8); experiment: (§2) Inhibition of Norovirus prototypic GII.4 3CL protease using HiLyte Fluor 488-labelled DFELQGPK as substrate incubated for 90 mins measured every mins for 20 mins by FRET assay; design: species or system Norovirus GII.4
T1 sequence (G1FEK8 whole entry): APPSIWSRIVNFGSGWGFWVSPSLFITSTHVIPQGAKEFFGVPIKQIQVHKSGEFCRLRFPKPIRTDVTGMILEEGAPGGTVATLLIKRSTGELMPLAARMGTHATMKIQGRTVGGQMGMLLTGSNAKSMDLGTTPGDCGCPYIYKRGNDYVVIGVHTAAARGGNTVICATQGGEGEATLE

CCRF-CEM = experiment: Cytotoxicity against human CEM cells assessed as reduction in cell viability after 6 days by trypan blue exclusion assay; format: cell-based; settings: 144 h
PBMC = experiment: Cytotoxicity against human PBMC assessed as reduction in cell viability after 6 days by trypan blue exclusion assay; format: cell-based; settings: 144 h
Vero = experiment: Cytotoxicity against African green monkey Vero cells assessed as reduction in cell viability after 3 days by hemocytometer; format: cell-based; settings: chlorocebus sabaeus, 72 h
Norovirus [2] = experiment: Antiviral activity against Norovirus prototypic GI.1 infected in human HG23 cells assessed as inhibition of viral RNA replication after 4 days by RT-qPCR method; format: functional, organism-based, Norovirus GI.1
[3] = molecular target: T2, Protease (Norovirus Hu/GII.4-2002/WeertE022/2002/NL) (UniProt G1FEK8); experiment: as §2; settings: Norovirus GII.4
T2 sequence (whole entry): T1 sequence (G1FEK8 whole entry)

[4] = molecular target: Nonstructural polyprotein (Norovirus Hu/GI/10360/2010/VNM) (UniProt I1U3K2); experiment: as §1; settings: Norovirus GI.1
Sequence of Nonstructural polyprotein (Norovirus Hu/GI/10360/2010/VNM) (I1U3K2 as listed by the source): as the sequence (I1U3K2 whole entry) above

Huh-7 = experiment: Cytotoxicity against human HuH7 cells assessed as reduction in cell viability; format: cell-based
[5] = molecular target: T2, Protease (Norovirus Hu/GII.4-2002/WeertE022/2002/NL); experiment: Inhibition of Norovirus prototypic GII.4 3CL protease using HiLyte Fluor 488-labelled DFELQGPK as substrate incubated for 90 mins measured every mins for 20 mins by FRET assay relative to control; settings: Norovirus GII.4
Norovirus [6] = experiment: Antiviral activity against Norovirus prototypic GI.1 infected in human HG23 cells assessed as inhibition of viral RNA replication at 10 uM after 4 days by RT-qPCR method relative to control; format: functional, Norovirus GI.1; settings: HG23, 96 h
[7] = Norovirus, HG23, 96 h, read-out: EC50

SMILES: CC(C)C[C@H](NC(=O)[C@H](Cc1cccc2ccccc12)NC(=O)OCc1ccccc1)C(=O)NC(/C=C/C=O)C[C@@H]1CCNC1=O (some centres not stated)
- IC50 [1]: > 10 µM
- IC50 (Protease): > 100 µM
- CC50 (CCRF-CEM): 1.9 µM
- CC50 (PBMC): 3.9 µM
- CC50 (Vero): 77.7 µM
- EC90 (Norovirus [2]; Norovirus, HG23, 96 h): > 10 µM
- EC50 (Norovirus [2]; [7]): 4.7 µM

SMILES: CC(C)C[C@H](NC(=O)[C@H](Cc1cccc2ccccc12)NC(=O)OCc1ccccc1)C(=O)NC(C[C@@H]1CCNC1=O)C1OC1S(C)(=O)=O (some centres not stated)
- IC50 [1]: > 10 µM
- IC50 (Protease): 30 µM
- IC90 [3]: > 100 µM
- CC50 (CCRF-CEM): 63.9 µM
- CC50 (PBMC): > 100 µM
- CC50 (Vero): > 100 µM
- EC90 (Norovirus [2]; Norovirus, HG23, 96 h): > 20 µM
- EC50 (Norovirus [2]; [7]): 4.33 µM

SMILES: CC(C)C[C@H](NC(=O)[C@H](Cc1cccc2ccccc12)NC(=O)OCc1ccccc1)C(=O)N[C@H](CCl)C[C@@H]1CCCNC1=O
- IC50 (Protease): > 100 µM
- CC50 (CCRF-CEM): 26.6 µM
- CC50 (PBMC): 75 µM
- CC50 (Vero): 51.7 µM
- EC50 (Norovirus [2]; [7]): > 10 µM

SMILES: CC(C)C[C@H](NC(=O)[C@H](Cc1cccc2ccccc12)NC(=O)OCc1ccccc1)C(=O)NC(C[C@@H]1CCNC1=O)C1CO1 (some centres not stated)
- IC50 [1]: > 100 µM
- IC50 (Protease): > 100 µM
- CC50 (CCRF-CEM): 14 µM
- CC50 (PBMC): 15.7 µM
- CC50 (Vero): 30.4 µM
- EC50 (Norovirus [2]; [7]): > 10 µM

SMILES: CC(C)C[C@H](NC(=O)[C@H](Cc1cccc2ccccc12)NC(=O)OCc1ccccc1)C(=O)N[C@H](/C=C(\C#N)C(N)=O)C[C@@H]1CCCNC1=O
- IC50 [1]: 0.593 µM
- IC90 [4]: 1.7 µM
- CC50 (Huh-7): 8.4 µM
- IC50 (Protease): 1.17 µM
- IC90 [3]: 3.6 µM
- CC50 (CCRF-CEM): 9.1 µM
- CC50 (PBMC): 45.4 µM
- CC50 (Vero): > 100 µM
- EC90 (Norovirus [2]; Norovirus, HG23, 96 h): 7.82 µM
- EC50 (Norovirus [2]; [7]): 0.75 µM

SMILES: CC(C)C[C@H](NC(=O)[C@H](Cc1cccc2ccccc12)NC(=O)OCc1ccccc1)C(=O)N[C@@H](C[C@@H]1CCCNC1=O)C(O)S(=O)(=O)O (some centres not stated)
- IC50 [1]: 0.654 µM
- IC90 [4]: 2.24 µM
- CC50 (Huh-7): 11.2 µM
- IC50 (Protease): 2.63 µM
- IC90 [3]: 14 µM
- CC50 (CCRF-CEM): 18.3 µM
- CC50 (PBMC): 43.8 µM
- CC50 (Vero): > 100 µM
- EC90 (Norovirus [2]; Norovirus, HG23, 96 h): 2.45 µM
- EC50 (Norovirus [2]; [7]): 0.39 µM

SMILES: CC(C)C[C@H](NC(=O)[C@H](Cc1cccc2ccccc12)NC(=O)OCc1ccccc1)C(=O)N[C@@H](C[C@@H]1CCCNC1=O)C(=O)C(F)(F)F
- IC50 [1]: 0.654 µM
- IC90 [4]: 2.24 µM
- CC50 (Huh-7): 11.2 µM
- IC50 (Protease): 2.63 µM
- IC90 [3]: 14 µM
- CC50 (CCRF-CEM): 18.3 µM
- CC50 (PBMC): 43.8 µM
- CC50 (Vero): > 100 µM
- EC90 (Norovirus [2]; Norovirus, HG23, 96 h): 2.45 µM
- EC50 (Norovirus [2]; [7]): 0.39 µM

SMILES: CC(C)C[C@H](NC(=O)[C@H](Cc1cccc2ccccc12)NC(=O)OCc1ccccc1)C(=O)N[C@H](CO)CNC(=O)N1CCC1
- IC50 [1]: > 100 µM
- CC50 (Huh-7): 33 µM
- IC50 (Protease): > 100 µM
- CC50 (CCRF-CEM): 2.2 µM
- CC50 (PBMC): 21.2 µM
- CC50 (Vero): > 100 µM
- EC50 (Norovirus [2]; [7]): > 10 µM
- inhibition [5]: 4%

SMILES: CC(C)C[C@H](NC(=O)[C@H](Cc1cccc2ccccc12)NC(=O)OCc1ccccc1)C(=O)N[C@H](CS)C[C@@H]1CCNC1=O
- IC50 [1]: > 10 µM
- CC50 (Huh-7): 93.5 µM
- IC50 (Protease): > 10 µM
- CC50 (CCRF-CEM): > 100 µM
- CC50 (PBMC): > 100 µM
- CC50 (Vero): > 100 µM
- EC50 (Norovirus [2]; [7]): > 10 µM

SMILES: CC(C)C[C@H](NC(=O)[C@H](Cc1cccc2ccccc12)NC(=O)OCc1ccccc1)C(=O)N[C@H](C=O)C[C@@H]1CCNC1=O
- IC50 [1]: 0.032 µM
- IC90 [4]: 0.248 µM
- CC50 (Huh-7): > 10 µM
- IC50 (Protease): 0.06 µM
- IC90 [3]: 0.205 µM
- CC50 (CCRF-CEM): 39.5 µM
- CC50 (PBMC): 28.4 µM
- CC50 (Vero): > 100 µM
- EC90 (Norovirus [2]; Norovirus, HG23, 96 h): 8.36 µM
- EC50 (Norovirus [2]; [7]): 1.13 µM

SMILES: CC(C)C[C@H](NC(=O)[C@H](Cc1cccc2ccccc12)NC(=O)OCc1ccccc1)C(=O)N[C@H](CO)Cn1ccnn1
- IC50 [1]: > 1 µM
- CC50 (Huh-7): 2.7 µM
- IC50 (Protease): > 10 µM
- CC50 (CCRF-CEM): 0.3 µM
- CC50 (PBMC): 1.9 µM
- CC50 (Vero): 3.2 µM
- EC50 (Norovirus [2]): Nd(Toxic)
- inhibition at 10 µM (Norovirus [6]): 99%

SMILES: CC(C)C[C@H](NC(=O)[C@H](Cc1cccc2ccccc12)NC(=O)OCc1ccccc1)C(=O)N[C@H](CO)CCC(=O)N1CCC1
- IC50 [1]: > 1 µM
- IC50 (Protease): 0.502 µM
- IC90 [3]: 5.54 µM
- CC50 (CCRF-CEM): 2.2 µM
- CC50 (PBMC): 18.4 µM
- CC50 (Vero): 8.6 µM
- EC90 (Norovirus [2]; Norovirus, HG23, 96 h): 17.3 µM
- EC50 (Norovirus [2]; [7]): 6.19 µM

SMILES: CC(C)C[C@H](NC(=O)[C@H](Cc1cccc2ccccc12)NC(=O)OCc1ccccc1)C(=O)N[C@H](C=O)C[C@@H]1CCCNC1=O
- IC50 [1]: 0.08 µM
- IC90 [4]: 0.155 µM
- CC50 (Huh-7): 25.7 µM
- IC50 (Protease): 0.15 µM
- IC90 [3]: 1.19 µM
- CC50 (CCRF-CEM): 31.6 µM
- CC50 (PBMC): 23.6 µM
- CC50 (Vero): 19.8 µM
- EC90 (Norovirus [2]; Norovirus, HG23, 96 h): 0.92 µM
- EC50 (Norovirus [2]; [7]): 0.42 µM
